We go through three compounds from patent US9700572B2, “Anti-cancer agent” (priority 2012, dated 2017).

For data set [1], the system named is pancreas cancer cell Capan-1. Briefly: Test Example 9: PI staining (dead cell staining), FACS. The data set is classed as cell-based, human. The settings on record: 24 hours. The protocol: (§1) For preparation of the glucose-containing medium, 4.75 g of Dulbecco's modified Eagle medium 2 (Nissui Pharmaceutical) was dissolved in water, added by 12.5 ml of 1M HEPES pH 7.4 (DOJINDO LABORATORIES, 342-01375), sterilized, added by 18.5 ml of 10% NAHCO3, 10 ml of L-glutamine (Sigma-Aldrich), 5 ml of Anti-Anti (Life technologies), 5 ml of MEM NON-ESSENTIAL AMINO ACID SOLUTION (Sigma-Aldrich) and 50 ml of FETAL BOVINE SERUM (Biowest) that was inactivated in a warm bath at 56° C. for 30 minutes, and finally filled up to 500 ml. The glucose inhibition medium was prepared by adding 2-Deoxy-Glucose (2-DG) (Tokyo Chemical industry) in 15 mM of final concentration to the glucose-containing medium. The medium containing 4 μM arctigenin was prepared by adding arctigenin ([…] Pharmaceutical) in 4 μM of final concentration to the glucose-containing medium or the glucose inhibition medium. The pancreas cancer cell Capan-1 (ATCC No. HTB-79) was seeded in a glucose-containing medium, incubated overnight and then incubated in each of a glucose-containing medium, a glucose inhibition medium, a glucose-containing medium containing 4 μM arctigenin and a glucose inhibition medium containing 4 μM arctigenin, or in 7 μM cisplatin (CDDP: Wako Pure Chemical Industries) for 24 hours. After collected cells, PI staining (dead cell staining) and cancer stem cell marker staining were carried out according to the usual method and an Analysis was carried out using flow cytometry (FACS). For the marker, triple positive of CD44, CD24 and ESA (CD326) which was reported as a stern cell marker of pancreas cancer was used.

In data set [2] the test system is human pancreas cancer cell line CAPAN-1. The data set can be described thus: Test Example 6: antitumor evaluation in tumor model animal (CAPAN-1 Xenografts). The data set is classed as in vivo, nude mouse. The following applies: 50 μg per mouse orally five times a week; one month; FIG. 4. The protocol: (§2) The model animal of a tumor was made by seeding human pancreas cancer cell line CAPAN-1 or PSN-1 in subcutis of back of a nude mouse (BALB-cAJnu/nu; CLEA Japan, Inc.) as a donor and transplanting the tumor mass of the provided donor mouse into subcutis of back of a recipient mouse, Arctigenin (AG), arctiin (A) and the burdock fruit extract (Example 12) were dissolved in DMSO in concentration of 10 mg/ml, diluted with a saline, and then administered orally in stomach at 50 μg per one mouse five times a week. The anticancerous was evaluated by measuring the size of the subcutaneous tumor mass of the back with time.

For data set [3], the system named is CD44+,c-MetHigh pancreas cancer stem cell (PANC-1). The data set can be described thus: Test Example 8: cancer stem cell marker staining (CD44, c-Met), FACS. It counts as cell-based, human. The settings on record: 3 μM arctigenin. How it is done: (§3) For preparation of the glucose-containing medium, 4.75 g of Dulbecco's modified Eagle medium 2 (Nissui Pharmaceutical) was dissolved in water, added by 12.5 ml of 1M HEPES pH 7.4 (DOJINDO LABORATORIES, 342-01375), sterilized, added by 18.5 ml of 10% NAHCO3, 10 ml of L-glutamine (Sigma-Aldrich), 5 ml of Anti-Anti (Life technologies), 5 ml of MEM NON-ESSENTIAL AMINO ACID SOLUTION (Sigma-Aldrich) and 50 ml of FETAL BOVINE SERUM (Biowest) that was inactivated in a warm bath at 56° C. for 30 minutes, and finally filled up to 500 ml. The glucose inhibition medium was prepared by adding 2-Deoxy-Glucose (2-DG) (Tokyo Chemical Industry) in 20 mM of final concentration to the glucose-containing medium. The medium containing 3 μM arctigenin was prepared by adding arctigenin ([…] Pharmaceutical) in 3 μM of final concentration to the glucose-containing medium or the glucose inhibition medium. For preparation of FACS buffer, 10 g of Bovine serum albumin Protease free (Wako Pure Chemical industries) was dissolved in 1 L of PBS (-), added by sodium azide in 0.1% of final concentration and performed filtration sterilization. For the fluorescence-labeled antibody for FACS assays, CD44 (338803 or 338807, BioLegend), CD24 (311117, BioLegend), ESA (324205, BioLegend) and c-[…]-8858, eBioscience) were used. In addition, a staining step was carried out according to the attached data sheet to the product. The pancreas cancer cell PANC-1 (ATCC No CRL-1469 was seeded in a glucose-containing medium, incubated overnight and then incubated in each of the glucose-containing medium, the glucose inhibition medium, the glucose-containing medium containing 3 μM arctigenin and the glucose inhibition medium containing 3 μM arctigenin for 24 hours. After collected cells, PI staining (dead cell staining) and cancer stem cell marker staining were carried out according to the usual method and an Analysis was carried out using flow cytometry (FACS). For a marker, triple positive of CD44, CD24 and ESA (CD326) or double positive of CD44 positive and c-Met strong positive which were reported as a stem cell marker of pancreas cancer were used.

For data set [4] the following is noted: cited from earlier work.
In data set [5] the test system is CD44+ESA+CD24+ pancreas cancer stem cell (PANC-1). Briefly: Test Example 8: cancer stem cell marker staining (CD44, CD24, ESA), FACS. The data set is classed as cell-based, human. The following applies: 3 μM arctigenin. The protocol: as §3
Data set [6] concerns human pancreas cancer cell line PSN-1. The data set can be described thus: Test Example 6: antitumor evaluation in tumor model animal (PSN-1 Xenografts). The data set is classed as in vivo, nude mouse. The settings on record: 50 μg per mouse orally five times a week; one month; FIG. 5. How it is done:
as §2

Data set [7] concerns pancreas cancer cell line PANC-1. The settings on record: PANC-1 screening; cited from earlier work.
For data set [8], the system named is pancreas cancer cell PANC-1. Briefly: Test Example 8: PI staining (dead cell staining), FACS. The data set is classed as cell-based, human. The settings on record: 3 μM arctigenin. How it is done:
For preparation of the glucose-containing medium, 4.75 g of Dulbecco's modified Eagle medium 2 (Nissui Pharmaceutical) was dissolved in water, added by 12.5 ml of 1M HEPES pH 7.4 (DOJINDO LABORATORIES, 342-01375), sterilized, added by 18.5 ml of 10% NAHCO3, 10 ml of L-glutamine (Sigma-Aldrich), 5 ml of Anti-Anti (Life technologies), 5 ml of MEM NON-ESSENTIAL AMINO ACID SOLUTION (Sigma-Aldrich) and 50 ml of FETAL BOVINE SERUM (Biowest) that was inactivated in a warm bath at 56° C. for 30 minutes, and finally filled up to 500 ml. The glucose inhibition medium was prepared by adding 2-Deoxy-Glucose (2-DG) (Tokyo Chemical Industry) in 20 mM of final concentration to the glucose-containing medium. The medium containing 3 μM arctigenin was prepared by adding arctigenin ([…] Pharmaceutical) in 3 μM of final concentration to the glucose-containing medium or the glucose inhibition medium. For preparation of FACS buffer, 10 g of Bovine serum albumin Protease free (Wako Pure Chemical industries) was dissolved in 1 L of PBS (-), added by sodium azide in 0.1% of final concentration and performed filtration sterilization. The pancreas cancer cell PANC-1 (ATCC No CRL-1469 was seeded in a glucose-containing medium, incubated overnight and then incubated in each of the glucose-containing medium, the glucose inhibition medium, the glucose-containing medium containing 3 μM arctigenin and the glucose inhibition medium containing 3 μM arctigenin for 24 hours. After collected cells, PI staining (dead cell staining) and cancer stem cell marker staining were carried out according to the usual method and an Analysis was carried out using flow cytometry (FACS). For a marker, triple positive of CD44, CD24 and ESA (CD326) or double positive of CD44 positive and c-Met strong positive which were reported as a stem cell marker of pancreas cancer were used.

Data set [9] relates to CD44+ESA+CD24+ pancreas cancer stem cell (Capan-1). Briefly: Test Example 9: cancer stem cell marker staining (CD44, CD24, ESA), FACS. It counts as cell-based, human. How it is done:
as §1

On to `COc1cc(C[C@H]2C(=O)OC[C@@H]2Cc2ccc(OC)c(OC)c2)ccc1O` [arctigenin], for which the “cellular survival rate (PI staining)” value in data set [1] (4 μM arctigenin, glucose inhibition condition (15 mM 2-DG), without arctigenin 79.10%) was determined as 48.73%; in data set [1] (4 μM arctigenin, glucose-containing condition, without arctigenin 67.57%), 72.80%; in [8] (glucose inhibition condition (20 mM 2-DG), 24 hours, FIG. 6, without arctigenin 68.53%) it was 35.71%; in data set [8] (glucose inhibition condition, FIG. 7, without arctigenin 88.80%) it was 27.50%; in data set [8] (glucose-containing condition, 24 hours, FIG. 6, without arctigenin 78.20%) it was 69.50%; in data set [8] (glucose-containing condition, FIG. 7, without arctigenin 84.70%) it was 83.30%. Besides, the “antitumor effect (size of subcutaneous tumor mass)” value in data set [2] and in data set [6] was “antitumor effect was also obtained” in each case. Moreover, the “positive ratio of CD44+,c-MetHigh cell in all analyzed cells” value in data set [3] (glucose inhibition condition, without arctigenin 0.78%) came out at 0.22%; in data set [3] (glucose-containing condition, without arctigenin 0.63%), 0.52%. The “number of the survival of CD44+,c-MetHigh cell” value in data set [3] (glucose inhibition condition, without arctigenin 47) was 13; in [3] (glucose-containing condition, without arctigenin 38), 31. Moreover, the solubility in water entry in [4] is on record as “hardly soluble”. Further, the “ratio of CD44+ESA+CD24+ cell in all analyzed cells” value in data set [5] (glucose inhibition condition, without arctigenin 6.51%) is listed as 0.98%; in data set [5] (glucose-containing condition, without arctigenin 4.41%), 5.01%; in [9] (4 μM arctigenin, glucose inhibition condition, without arctigenin 1.40%), 0.24%; in data set [9] (4 μM arctigenin, glucose-containing condition, without arctigenin 0.87%), 1.04%. In addition, the “number of the survival of CD44+ESA+CD24+ cell” value in data set [5] (glucose inhibition condition, without arctigenin 651) turned out to be 98; in [5] (glucose-containing condition, without arctigenin 441), 501; in [9] (4 μM arctigenin, glucose inhibition condition, without arctigenin 105) it was 18; in data set [9] (4 μM arctigenin, glucose-containing condition, without arctigenin 65), 78. Further, in [7], the “cancel the viability of tumor cells under undernutrition condition” value is on record as “effective”. Moreover, the “ratio of CD44+ESA+CD24+ cell analyzed in viable cells” value in data set [9] (4 μM arctigenin, glucose inhibition condition, without arctigenin 1.77%) worked out at 0.50%; in [9] (4 μM arctigenin, glucose-containing condition, without arctigenin 1.28%) it was 1.43%.
Turning to `N.N.[Cl][Pt][Cl]` [cisplatin, reference compound], the “cellular survival rate (PI staining)” value in [1] (7 μM cisplatin) came to 58.08%. Besides, in data set [9] (7 μM cisplatin treatment), the “number of the survival of CD44+ESA+CD24+ cell” value was 88, the “ratio of CD44+ESA+CD24+ cell analyzed in viable cells” value is listed as 2.02% and the “ratio of CD44+ESA+CD24+ cell in all analyzed cells” value was 1.17%.
`COc1ccc(C[C@H]2COC(=O)[C@@H]2Cc2ccc(O[C@@H]3O[C@H](CO)[C@@H](O)[C@H](O)[C@H]3O)c(OC)c2)cc1OC` [arctiin]: the solubility in water result in [4] is “hardly soluble”.
